Results: ChEMBL document CHEMBL4507319 (2021)

Tests used:
[1] = biological target: Activated CDC42 kinase 1 (Homo sapiens) (UniProt Q07912); experiment: ACK1(h) Eurofins kinase panel; conditions: Compound concentration 1.0 uM
[2] = biological target: Tyrosine-protein kinase ABL2 (Homo sapiens) (UniProt P42684); experiment: Arg(h) Eurofins kinase panel; conditions: Compound concentration 1.0 uM
[3] = biological target: T1, Cytoplasmic tyrosine-protein kinase BMX (Homo sapiens) (UniProt P51813); experiment: Bmx(h) Eurofins kinase panel; conditions: Compound concentration 1.0 uM
T1 sequence (whole entry): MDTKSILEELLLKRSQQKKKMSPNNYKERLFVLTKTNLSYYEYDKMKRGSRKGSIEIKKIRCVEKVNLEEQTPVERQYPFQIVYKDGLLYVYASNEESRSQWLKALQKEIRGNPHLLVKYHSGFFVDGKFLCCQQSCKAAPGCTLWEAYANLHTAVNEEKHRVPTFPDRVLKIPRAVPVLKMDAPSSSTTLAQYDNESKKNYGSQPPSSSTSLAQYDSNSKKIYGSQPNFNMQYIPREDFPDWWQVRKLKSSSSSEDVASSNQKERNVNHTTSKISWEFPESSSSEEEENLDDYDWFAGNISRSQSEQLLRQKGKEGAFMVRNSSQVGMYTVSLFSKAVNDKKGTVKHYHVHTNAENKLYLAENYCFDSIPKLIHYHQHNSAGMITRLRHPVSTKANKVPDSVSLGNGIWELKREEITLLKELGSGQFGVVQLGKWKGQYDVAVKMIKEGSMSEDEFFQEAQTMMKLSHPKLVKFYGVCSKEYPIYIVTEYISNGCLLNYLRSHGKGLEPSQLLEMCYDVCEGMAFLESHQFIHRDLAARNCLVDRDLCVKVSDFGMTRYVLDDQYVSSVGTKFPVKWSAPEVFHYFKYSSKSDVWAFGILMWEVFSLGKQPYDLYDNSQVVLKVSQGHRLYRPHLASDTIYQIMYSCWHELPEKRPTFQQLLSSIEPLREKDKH

[4] = biological target: Tyrosine-protein kinase BTK (Homo sapiens) (UniProt Q06187); experiment: BTK(h) Eurofins kinase panel; conditions: Compound concentration 1.0 uM
Chain of Tyrosine-protein kinase BTK (Homo sapiens) (Q06187 whole entry): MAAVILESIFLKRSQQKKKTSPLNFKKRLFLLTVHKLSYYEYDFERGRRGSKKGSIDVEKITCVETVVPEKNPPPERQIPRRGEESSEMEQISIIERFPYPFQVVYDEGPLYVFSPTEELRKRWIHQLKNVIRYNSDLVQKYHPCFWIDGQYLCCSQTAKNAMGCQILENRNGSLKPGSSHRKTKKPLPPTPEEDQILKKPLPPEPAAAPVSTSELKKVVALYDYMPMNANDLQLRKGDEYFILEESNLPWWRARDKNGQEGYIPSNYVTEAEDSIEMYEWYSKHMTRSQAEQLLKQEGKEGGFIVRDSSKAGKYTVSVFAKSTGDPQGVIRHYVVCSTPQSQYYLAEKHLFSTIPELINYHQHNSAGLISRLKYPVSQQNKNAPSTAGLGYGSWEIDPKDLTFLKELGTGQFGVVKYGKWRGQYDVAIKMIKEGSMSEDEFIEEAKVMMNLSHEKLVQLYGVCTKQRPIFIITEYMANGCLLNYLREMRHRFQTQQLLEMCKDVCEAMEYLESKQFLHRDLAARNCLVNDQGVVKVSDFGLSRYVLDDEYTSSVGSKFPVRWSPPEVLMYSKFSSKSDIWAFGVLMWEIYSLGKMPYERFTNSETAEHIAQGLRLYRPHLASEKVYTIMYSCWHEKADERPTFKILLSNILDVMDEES

[5] = biological target: CDK18/Cyclin Y (Homo sapiens) (UniProt Q07002+Q8ND76); experiment: CDK18/cyclinY(h) Eurofins kinase panel; format: protein-complex assay; conditions: Compound concentration 1.0 uM
[6] = biological target: T2, Discoidin domain-containing receptor 2 (Homo sapiens) (UniProt Q16832); experiment: DDR2(h) Eurofins kinase panel; conditions: Compound concentration 1.0 uM
T2 sequence (whole entry): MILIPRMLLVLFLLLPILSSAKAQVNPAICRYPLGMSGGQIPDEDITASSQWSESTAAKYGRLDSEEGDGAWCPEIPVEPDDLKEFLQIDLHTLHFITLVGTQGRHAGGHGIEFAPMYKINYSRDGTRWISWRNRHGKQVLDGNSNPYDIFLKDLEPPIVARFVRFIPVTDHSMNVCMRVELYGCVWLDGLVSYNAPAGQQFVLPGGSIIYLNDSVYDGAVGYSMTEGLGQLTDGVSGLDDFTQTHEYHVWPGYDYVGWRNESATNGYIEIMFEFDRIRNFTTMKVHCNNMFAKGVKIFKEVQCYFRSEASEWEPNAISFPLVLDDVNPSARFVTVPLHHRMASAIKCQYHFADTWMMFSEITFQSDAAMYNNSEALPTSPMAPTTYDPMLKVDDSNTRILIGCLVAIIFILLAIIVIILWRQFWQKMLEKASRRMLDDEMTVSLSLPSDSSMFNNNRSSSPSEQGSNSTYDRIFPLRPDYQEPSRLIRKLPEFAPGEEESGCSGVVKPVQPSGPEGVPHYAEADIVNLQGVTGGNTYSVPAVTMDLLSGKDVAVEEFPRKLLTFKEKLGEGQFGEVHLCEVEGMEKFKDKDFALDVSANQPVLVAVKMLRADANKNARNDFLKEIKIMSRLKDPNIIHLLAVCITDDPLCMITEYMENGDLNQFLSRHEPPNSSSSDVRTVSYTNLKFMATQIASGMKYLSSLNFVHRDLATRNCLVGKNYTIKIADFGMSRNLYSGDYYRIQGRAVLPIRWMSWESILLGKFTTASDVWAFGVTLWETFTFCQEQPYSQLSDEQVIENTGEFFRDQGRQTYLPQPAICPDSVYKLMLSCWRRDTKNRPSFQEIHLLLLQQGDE

[7] = biological target: Tyrosine-protein kinase Lyn (Homo sapiens) (UniProt P07948); experiment: Lyn(h) Eurofins kinase panel; conditions: Compound concentration 1.0 uM
[8] = biological target: Mitogen-activated protein kinase kinase kinase kinase 5 (Homo sapiens) (UniProt Q9Y4K4); experiment: MAP4K5(h) Eurofins kinase panel; conditions: Compound concentration 1.0 uM
[9] = biological target: Mitogen-activated protein kinase kinase kinase 10 (Homo sapiens) (UniProt Q02779); experiment: MLK2(h) Eurofins kinase panel; conditions: Compound concentration 1.0 uM
[10] = biological target: T3, Serine/threonine-protein kinase Nek11 (Homo sapiens) (UniProt Q8NG66); experiment: NEK11(h) Eurofins kinase panel; conditions: Compound concentration 1.0 uM
T3 sequence (whole entry): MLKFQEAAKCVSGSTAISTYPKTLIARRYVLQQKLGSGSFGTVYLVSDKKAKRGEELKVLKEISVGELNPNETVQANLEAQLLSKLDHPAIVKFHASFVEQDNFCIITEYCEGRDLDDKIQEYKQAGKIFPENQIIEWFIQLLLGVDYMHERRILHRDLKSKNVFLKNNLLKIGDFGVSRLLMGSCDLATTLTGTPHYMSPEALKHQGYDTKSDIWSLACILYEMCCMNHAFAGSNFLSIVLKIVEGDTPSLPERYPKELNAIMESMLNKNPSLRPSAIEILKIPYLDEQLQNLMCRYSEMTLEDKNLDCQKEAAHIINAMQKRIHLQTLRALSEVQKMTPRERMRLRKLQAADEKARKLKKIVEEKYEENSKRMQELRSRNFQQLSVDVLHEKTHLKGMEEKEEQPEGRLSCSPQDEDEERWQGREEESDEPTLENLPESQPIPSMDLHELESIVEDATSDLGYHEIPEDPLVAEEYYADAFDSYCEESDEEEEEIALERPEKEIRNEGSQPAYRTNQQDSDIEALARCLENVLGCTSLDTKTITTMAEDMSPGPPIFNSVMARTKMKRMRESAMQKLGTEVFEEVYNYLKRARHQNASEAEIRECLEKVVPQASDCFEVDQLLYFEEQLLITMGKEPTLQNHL

[11] = biological target: Protein kinase C gamma type (Homo sapiens) (UniProt P05129); experiment: PKCgamma(h) Eurofins kinase panel; conditions: Compound concentration 1.0 uM
[12] = biological target: Protein kinase C zeta type (Homo sapiens) (UniProt Q05513); experiment: PKCzeta(h) Eurofins kinase panel; conditions: Compound concentration 1.0 uM
Chain of Protein kinase C zeta type (Homo sapiens) (Q05513 whole entry): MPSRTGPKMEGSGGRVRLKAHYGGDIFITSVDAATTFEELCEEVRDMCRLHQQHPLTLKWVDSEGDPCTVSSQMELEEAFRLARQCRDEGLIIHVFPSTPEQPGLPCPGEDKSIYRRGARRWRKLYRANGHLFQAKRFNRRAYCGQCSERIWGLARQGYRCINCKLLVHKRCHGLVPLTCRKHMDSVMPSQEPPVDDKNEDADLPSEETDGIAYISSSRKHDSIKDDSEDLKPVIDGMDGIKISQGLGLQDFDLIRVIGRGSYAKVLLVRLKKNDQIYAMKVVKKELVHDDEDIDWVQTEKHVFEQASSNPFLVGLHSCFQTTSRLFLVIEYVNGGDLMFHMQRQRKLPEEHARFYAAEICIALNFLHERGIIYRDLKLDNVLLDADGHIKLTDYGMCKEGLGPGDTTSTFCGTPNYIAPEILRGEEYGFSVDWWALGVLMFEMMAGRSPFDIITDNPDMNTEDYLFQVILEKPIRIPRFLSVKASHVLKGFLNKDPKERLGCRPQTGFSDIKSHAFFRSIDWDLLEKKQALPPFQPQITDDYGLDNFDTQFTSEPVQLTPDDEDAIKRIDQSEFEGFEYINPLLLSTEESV

[13] = biological target: Testis-specific serine/threonine-protein kinase 2 (Homo sapiens) (UniProt Q96PF2); experiment: TSSK2(h) Eurofins kinase panel; conditions: Compound concentration 1.0 uM
Chain of Testis-specific serine/threonine-protein kinase 2 (Homo sapiens) (Q96PF2 whole entry, canonical isoform): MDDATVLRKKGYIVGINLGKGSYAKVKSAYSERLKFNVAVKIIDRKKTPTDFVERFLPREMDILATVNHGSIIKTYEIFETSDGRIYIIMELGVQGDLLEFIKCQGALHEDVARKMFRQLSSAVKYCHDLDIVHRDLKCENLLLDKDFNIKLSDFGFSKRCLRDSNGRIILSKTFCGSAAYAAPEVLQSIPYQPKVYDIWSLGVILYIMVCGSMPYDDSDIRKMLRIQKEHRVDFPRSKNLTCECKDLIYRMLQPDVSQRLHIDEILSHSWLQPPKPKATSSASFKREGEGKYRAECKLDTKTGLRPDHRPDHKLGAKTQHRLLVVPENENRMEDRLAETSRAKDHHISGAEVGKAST

[14] = biological target: Phosphatidylinositol 4,5-bisphosphate 3-kinase catalytic subunit gamma isoform (Homo sapiens) (UniProt P48736); experiment: PI3 Kinase (p120g)(h) Eurofins kinase panel; conditions: Compound concentration 1.0 uM
Chain of Phosphatidylinositol 4,5-bisphosphate 3-kinase catalytic subunit gamma isoform (Homo sapiens) (P48736 whole entry, looked up, canonical isoform): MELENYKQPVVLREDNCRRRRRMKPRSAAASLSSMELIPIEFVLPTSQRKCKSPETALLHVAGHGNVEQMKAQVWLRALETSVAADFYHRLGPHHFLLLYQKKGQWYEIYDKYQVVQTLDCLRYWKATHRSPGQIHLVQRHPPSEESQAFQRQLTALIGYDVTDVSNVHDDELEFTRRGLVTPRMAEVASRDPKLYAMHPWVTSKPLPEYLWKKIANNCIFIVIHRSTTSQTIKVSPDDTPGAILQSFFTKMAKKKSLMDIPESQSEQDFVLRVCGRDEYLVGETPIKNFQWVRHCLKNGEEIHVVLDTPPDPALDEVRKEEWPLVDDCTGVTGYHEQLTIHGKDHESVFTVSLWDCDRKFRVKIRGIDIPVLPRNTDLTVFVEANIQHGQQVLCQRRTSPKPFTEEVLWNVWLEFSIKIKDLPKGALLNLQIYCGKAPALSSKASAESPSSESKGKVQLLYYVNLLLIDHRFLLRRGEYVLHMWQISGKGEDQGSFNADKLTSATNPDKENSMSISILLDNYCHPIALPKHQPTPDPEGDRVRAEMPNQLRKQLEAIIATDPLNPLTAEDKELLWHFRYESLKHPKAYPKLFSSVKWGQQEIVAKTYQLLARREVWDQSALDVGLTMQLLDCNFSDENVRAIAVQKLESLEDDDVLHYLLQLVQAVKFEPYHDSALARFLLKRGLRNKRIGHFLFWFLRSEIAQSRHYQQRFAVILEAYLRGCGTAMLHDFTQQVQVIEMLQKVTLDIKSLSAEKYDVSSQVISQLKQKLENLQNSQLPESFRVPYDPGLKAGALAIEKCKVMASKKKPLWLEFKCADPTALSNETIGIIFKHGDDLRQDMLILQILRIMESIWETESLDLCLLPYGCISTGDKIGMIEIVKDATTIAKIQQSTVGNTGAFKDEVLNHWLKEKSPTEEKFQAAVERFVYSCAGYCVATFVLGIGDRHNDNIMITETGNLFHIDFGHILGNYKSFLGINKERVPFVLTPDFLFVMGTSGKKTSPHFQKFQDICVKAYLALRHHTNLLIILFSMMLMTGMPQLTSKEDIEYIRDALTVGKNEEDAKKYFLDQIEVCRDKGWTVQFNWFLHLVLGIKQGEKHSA

NCI-H292 = experiment: NCI- H292 cell line Proliferation assay; format: functional, Homo sapiens; conditions: time 3 day
[15] = biological target: T4, Ribosomal protein S6 kinase alpha-5 (Homo sapiens, UniProt O75582)
Target sequence in this assay (O75582 whole entry): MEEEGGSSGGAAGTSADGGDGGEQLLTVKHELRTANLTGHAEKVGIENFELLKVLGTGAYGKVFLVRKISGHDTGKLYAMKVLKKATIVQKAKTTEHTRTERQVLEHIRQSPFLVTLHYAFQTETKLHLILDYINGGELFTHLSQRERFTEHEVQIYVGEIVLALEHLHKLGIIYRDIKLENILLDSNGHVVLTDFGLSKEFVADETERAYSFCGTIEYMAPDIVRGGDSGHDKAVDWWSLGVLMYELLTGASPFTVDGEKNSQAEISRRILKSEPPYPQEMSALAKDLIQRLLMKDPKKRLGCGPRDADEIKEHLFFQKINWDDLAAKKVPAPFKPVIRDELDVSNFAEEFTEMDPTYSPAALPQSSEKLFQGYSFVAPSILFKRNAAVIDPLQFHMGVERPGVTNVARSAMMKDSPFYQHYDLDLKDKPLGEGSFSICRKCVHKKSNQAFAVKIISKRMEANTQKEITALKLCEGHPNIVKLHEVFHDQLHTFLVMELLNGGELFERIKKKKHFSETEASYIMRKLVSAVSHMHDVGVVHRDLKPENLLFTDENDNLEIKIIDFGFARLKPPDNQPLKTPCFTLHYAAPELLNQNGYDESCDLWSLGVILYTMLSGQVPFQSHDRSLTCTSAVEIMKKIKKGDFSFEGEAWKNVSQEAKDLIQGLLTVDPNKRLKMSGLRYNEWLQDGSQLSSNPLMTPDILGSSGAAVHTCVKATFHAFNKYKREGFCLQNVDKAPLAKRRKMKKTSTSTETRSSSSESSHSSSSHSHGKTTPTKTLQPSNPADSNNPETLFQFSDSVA

[16] = biological target: T4, Ribosomal protein S6 kinase alpha-5; conditions: Compound concentration 1.0 uM
Target sequence in this assay (O75582 whole entry, looked up): as the sequence (O75582 whole entry) above

[17] = biological target: Serine/threonine-protein kinase 24 (Homo sapiens, UniProt Q9Y6E0); conditions: Compound concentration 1.0 uM
Chain of Serine/threonine-protein kinase 24 (Q9Y6E0 whole entry, looked up): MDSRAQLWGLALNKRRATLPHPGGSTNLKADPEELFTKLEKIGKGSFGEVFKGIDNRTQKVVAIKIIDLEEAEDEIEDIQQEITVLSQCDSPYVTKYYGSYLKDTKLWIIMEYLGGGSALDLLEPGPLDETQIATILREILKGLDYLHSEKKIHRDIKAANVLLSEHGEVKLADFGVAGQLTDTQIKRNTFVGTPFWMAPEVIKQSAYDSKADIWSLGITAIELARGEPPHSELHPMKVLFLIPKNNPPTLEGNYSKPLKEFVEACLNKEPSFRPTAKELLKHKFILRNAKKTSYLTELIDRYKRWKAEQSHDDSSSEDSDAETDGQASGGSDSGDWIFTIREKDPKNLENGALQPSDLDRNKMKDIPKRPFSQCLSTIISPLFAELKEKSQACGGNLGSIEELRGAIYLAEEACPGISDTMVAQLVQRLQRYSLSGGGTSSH

Chain of Activated CDC42 kinase 1 (Homo sapiens) (Q07912 whole entry, looked up): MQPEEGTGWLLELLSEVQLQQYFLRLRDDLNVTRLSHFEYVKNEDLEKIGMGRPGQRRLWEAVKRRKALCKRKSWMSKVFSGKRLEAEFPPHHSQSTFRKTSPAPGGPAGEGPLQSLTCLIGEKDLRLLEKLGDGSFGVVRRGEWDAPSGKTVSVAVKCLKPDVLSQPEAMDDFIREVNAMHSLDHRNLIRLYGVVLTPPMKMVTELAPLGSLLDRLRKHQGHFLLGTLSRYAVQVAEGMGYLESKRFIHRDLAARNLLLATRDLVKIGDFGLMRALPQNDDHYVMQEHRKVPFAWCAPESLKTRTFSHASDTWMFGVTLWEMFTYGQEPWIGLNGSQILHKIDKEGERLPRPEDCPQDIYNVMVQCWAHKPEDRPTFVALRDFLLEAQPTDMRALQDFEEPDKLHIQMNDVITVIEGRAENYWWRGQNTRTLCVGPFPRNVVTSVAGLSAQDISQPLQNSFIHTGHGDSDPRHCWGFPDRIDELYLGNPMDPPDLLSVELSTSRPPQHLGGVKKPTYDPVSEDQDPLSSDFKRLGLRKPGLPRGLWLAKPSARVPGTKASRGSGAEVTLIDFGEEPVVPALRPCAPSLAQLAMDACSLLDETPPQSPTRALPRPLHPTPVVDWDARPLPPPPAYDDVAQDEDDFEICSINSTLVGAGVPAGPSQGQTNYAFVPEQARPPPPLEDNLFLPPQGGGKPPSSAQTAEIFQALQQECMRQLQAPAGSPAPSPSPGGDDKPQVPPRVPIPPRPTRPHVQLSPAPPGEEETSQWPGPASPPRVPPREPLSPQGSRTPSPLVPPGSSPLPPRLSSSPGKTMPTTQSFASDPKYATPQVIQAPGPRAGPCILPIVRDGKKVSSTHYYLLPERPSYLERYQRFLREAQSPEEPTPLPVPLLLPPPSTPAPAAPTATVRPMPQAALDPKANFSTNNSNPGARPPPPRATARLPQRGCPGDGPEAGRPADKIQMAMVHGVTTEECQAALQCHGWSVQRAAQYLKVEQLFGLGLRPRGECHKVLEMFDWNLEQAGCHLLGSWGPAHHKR

Q: Which % residual kinase activity [1] does the source give for `CCc1ccccc1C(=O)Nc1n[nH]c2c(C)c(F)c(C3C(C#N)=C(C)N(C)C(C)=C3C#N)cc12` [BAY-3827] here?
A: 94%

Q: What about the % residual kinase activity [2] of the same compound?
A: 101%

Q: What about the % residual kinase activity [3] of the same compound?
A: 113%

Q: And the % residual kinase activity [4]?
A: 96%

Q: And the % residual kinase activity [5]?
A: 106%

Q: And the % residual kinase activity [6]?
A: 92%

Q: What about the % residual kinase activity [7] of the same compound?
A: 110%

Q: And the % residual kinase activity [8]?
A: 95%

Q: What about the % residual kinase activity [9] of the same compound?
A: 94%

Q: What about the % residual kinase activity [10] of the same compound?
A: 103%

Q: And the % residual kinase activity [11]?
A: 47%

Q: What about the % residual kinase activity [12] of the same compound?
A: 99%

Q: What about the % residual kinase activity [13] of the same compound?
A: 105%

Q: What about the % residual kinase activity [14] of the same compound?
A: 99%

Q: What about the “Cell Proliferation IC50” value (NCI-H292) of the same compound?
A: 17100 nM

Q: What about the IC50 [15] of the same compound?
A: 43 nM

Q: What about the % residual kinase activity [16] of the same compound?
A: 10%

Q: And the % residual kinase activity [17]?
A: 17%
